Results taken from US12630525B2, “Triazinylmethylcycloalkylcarboxylic acid derivative, and pharmaceutical composition and use thereof” (SHANGHAI HAIYAN PHARMACEUTICAL TECHNOLOGY CO., LTD., priority 2021, dated 2026).
Each block holds one compound with its values, some of them ahead of it.

Experiments:
[1] = molecular target: T1, hP2X2/3 (Homo sapiens, UniProt P56373+Q9UBL9); test: FLIPR assay, antagonistic activity against hP2X2/3 receptor (selectivity versus P2X3); format: cell-based; conditions: Multiple of P2X2/3 inhibitory activity and P2X3 inhibitory activity
T1 construct: host or cells: 1321N1
T1 sequence (P56373 1-397): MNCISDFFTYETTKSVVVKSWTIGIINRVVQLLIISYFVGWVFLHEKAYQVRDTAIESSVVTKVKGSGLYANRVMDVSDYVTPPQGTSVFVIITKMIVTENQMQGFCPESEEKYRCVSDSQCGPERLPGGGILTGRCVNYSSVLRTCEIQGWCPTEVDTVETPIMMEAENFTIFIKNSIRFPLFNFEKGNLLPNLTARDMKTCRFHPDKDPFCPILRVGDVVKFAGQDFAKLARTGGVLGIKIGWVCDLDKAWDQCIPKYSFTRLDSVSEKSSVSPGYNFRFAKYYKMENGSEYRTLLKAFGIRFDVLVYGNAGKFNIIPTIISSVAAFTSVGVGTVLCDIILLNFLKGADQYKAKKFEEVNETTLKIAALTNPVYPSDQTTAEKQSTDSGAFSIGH
T1 sequence (Q9UBL9 1-471): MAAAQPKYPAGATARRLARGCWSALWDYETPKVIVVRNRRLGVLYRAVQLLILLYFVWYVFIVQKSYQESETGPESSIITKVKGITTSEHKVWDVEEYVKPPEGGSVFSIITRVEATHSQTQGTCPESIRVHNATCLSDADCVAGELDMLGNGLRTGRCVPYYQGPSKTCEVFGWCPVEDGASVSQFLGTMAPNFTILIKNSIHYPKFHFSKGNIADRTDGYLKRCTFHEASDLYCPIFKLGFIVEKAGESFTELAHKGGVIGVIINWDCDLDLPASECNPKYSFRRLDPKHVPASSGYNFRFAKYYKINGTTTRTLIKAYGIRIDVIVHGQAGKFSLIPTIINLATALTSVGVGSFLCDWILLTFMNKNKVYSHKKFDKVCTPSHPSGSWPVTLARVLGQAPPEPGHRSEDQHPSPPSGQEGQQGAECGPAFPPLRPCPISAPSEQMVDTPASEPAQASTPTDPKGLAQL
Procedure: (§1) Test Example 1: Screening Compounds for Antagonistic Activity Against hP2X3/hP2X2/3 Receptors by FLIPR Assay
(§2) Cell preparation: Cells 1321N1/hP2X3 and cells 1321N1/hP2X2/3 (supplier: Chempartner) were […] with Versene digestive solution. After centrifugation, the cells were suspended using plate medium (DMEM+[…]) and counted. The cells were adjusted to 3×10^5 cells/mL. Each of the 384-well test plates was covered with 50 μL cells and cultured in a […] incubator at 37° C. for 16 hours to 24 hours.
(§3) Compound preparation: 1. Test sample: test compound at a concentration 180 times the required concentration (54 mM DMSO stock solution) was prepared using DMSO in a 384-well polypropylene microporous plate conforming to Echo standard, 500 nL of which was added to each well of a 384-well compound plate. Then 30 μL of test buffer (1*HIBSS+2 mM CaCl2+20 mM HEPES containing 1.26 mM Ca^2+) was added to each well. The 384-well compound plate was shook for 20 min to 40 min to mix well.
(§4) 2. Agonist: agonist ([…]) at a concentration 3 times the required concentration (the final concentration of 3000 nM is required for both hP2X3 and hP2X2/3 cells) was prepared with the test buffer. 45 μL of agonist was added to each well of the 384-well compound plate.
(§5) Dye incubation: The cell plate was taken out. The supernatant was removed. 30 uL of Dye (FLTPR® Calcium 4 Assay Kit, test buffer diluted) was added to each well. The cells were incubated for 1 hour.
(§6) FLTPR detection: 15 μL of compound was added to each well of the cell plate (FLTPR instrument sampling). After 15 minutes, 22.5 μL of agonist was added to each well. Fluorescence signals (excitation wavelength of 470 nm to 495 nm, emission wavelength of 515 nm to 575 nm) were detected.
(§7) Data processing: the difference between the peak value and the valley value of the signal was taken as the basic data. The highest concentration of positive drug was taken as 100% inhibition rate, and DMSO data was taken as 0% inhibition rate. The inhibition curves of compounds were fitted by log (inhibitor) vs. response—Variable slope on Graphpad prism 6 and the IC50 value was calculated.
(§8) Experimental homogeneity standard: each plate was subjected to ≥12 max values (DMSO action results) and ≥12 min values (highest concentration positive drug action results), and the Z value was calculated. If Z≥0.5, it is considered that the parallel wells are homogenous and the data is reliable. The calculation formula for Z value is as follows: Z=1−3*(SDmax+SDmin)/([…]).

[2] = molecular target: T2, hP2X3 (Homo sapiens, UniProt P56373); test: FLIPR assay, antagonistic activity against hP2X3 receptor; format: cell-based; conditions: 1321N1/hP2X3 cells, FLIPR Calcium 4, agonist 3000 nM; read-out: P2X3 (IC50/nM)
T2 construct: host or cells: 1321N1
T2 sequence (P56373 1-397): T1 sequence (P56373 1-397)
Procedure: as §1, §2, §3, §4, §5, §6, §7, §8

[3] = system: mechanical pain hypersensitivity in the rat CFA inflammatory pain model; test: Analgesic effect in rat CFA inflammatory pain model (von Frey paw withdrawal threshold); format: in vivo, SD rats
Procedure: Test Example 2: Evaluation of Analgesic Effect of Rat CFA Inflammatory Pain Model
Experimental animals: 50 male SD rats with a weight of 230 g to 260 g were used. All the experimental animals were purchased from Beijing Weitonglihua Experimental Animal Technology Co., LTD. After purchase, food and water were supplied in the way of free feeding. The feeding temperature was 20° C. to 25° C. The humidity was 40% to 70%. The animals were kept in separate cages and labeled using the tail labeling method.
An emulsion was obtained by mixing full Freund's adjuvant with saline in equal amount. A certain amount of the emulsion was injected subcutaneously into the rats. The animal was placed in a specially designed multi-unit metal mesh cage for pain detection and allowed to acclimate for 15 minutes. After the animal's grooming and investigation activities were completed and acclimated to the detection environment, a series of calibrated von Frey filaments (0.4, 0.6, 1.0, 1.4, 2, 4, 6, 8, 10, 15) were continuously applied to the back paw until a withdrawal reflex reaction occurred. The tester conducted blind test on the experiment, and the experimental results were expressed as “mean±standard deviation”. The data of each group are analyzed by GraphPad Prism 5 t test, with statistical difference at P<0.05.

[4] = 14-day toxicity test with toxicokinetics in SD rats; format: in vivo; conditions: for AUC / Cmax: SD, rat, blood, 100 mg/kg
Procedure: Test Example 3: Toxicity Test
There were 16 male and 16 female SD rats with SPF grade. Male SD rats weighed about 240 g and were 6 to 9 weeks old. Female SD rats weighed about 200 g and were 6 to 9 weeks old. All the experimental animals were purchased from Zhejiang Weitonglihua Experimental Animal Technology Co., LTD. After purchase, food and water were supplied in the way of free feeding. The feeding temperature was 20° C. to 26° C. The humidity was 40% to 70%. The number of air changes per hour was ≥15 times, and 100% fresh air was used. Automatic lighting and alternating light and dark every 12 hours were used. Male and female are kept in separate cages, with no more than 5 rats per cage.
Animals in each group were randomly divided according to gender and body weight, and were given the medicament once a day for 14 days according to the dose design in Table 7. Toxicokinetic blood sampling was performed in each dose group 30 min, 1 hr, 4 hr, 7 hr, 10 hr and 24 hr before and after the first and last administration, respectively, to investigate the toxicokinetic process in SD rats of each group.

[5] = Exposure at the effective dose in the rat pain model (basis for safety windows); conditions: in vivo
Source text: Calculation Basis for Safety Windows:

[6] = female, female SD rats, 100 mg/kg once a day for 14 days, last administration, read-out: AUC0t Last administration
[7] = female, female SD rats, 100 mg/kg once a day for 14 days, last administration, read-out: Cmax Last administration
[8] = female, female SD rats, 100 mg/kg once a day, first administration, read-out: AUC0t First administration
[9] = female, female SD rats, 100 mg/kg once a day, first administration, read-out: Cmax First administration
[10] = male, male SD rats, 100 mg/kg once a day for 14 days, last administration, read-out: AUC0t Last administration
[11] = male, male SD rats, 100 mg/kg once a day for 14 days, last administration, read-out: Cmax Last administration
[12] = male, male SD rats, 100 mg/kg once a day, first administration, read-out: AUC0t First administration
[13] = male, male SD rats, 100 mg/kg once a day, first administration, read-out: Cmax First administration

SMILES: C[C@@H](Cn1c(=O)nc(Nc2ccc(Oc3ccccn3)cc2)n(Cc2ccc(Cl)cc2)c1=O)C(=O)O [Compound D1, reference compound]
- effective dose in the rat pain model ([3]; oral): 60 mg/kg
- AUC [4, 6]: 2150 µg·h/mL
- Cmax [4, 7]: 156 µg/mL
- AUC [4, 8]: 2420 µg·h/mL
- Cmax [4, 9]: 185 µg/mL
- AUC [4, 10]: 2540 µg·h/mL
- Cmax [4, 11]: 188 µg/mL
- AUC [4, 12]: 2770 µg·h/mL
- Cmax [4, 13]: 200 µg/mL
- AUC ([5]; 60 mg/kg): ~1570 µg·h/mL
- Cmax ([5]; 60 mg/kg): ~141 µg/mL

SMILES: O=C(O)[C@H]1C[C@@H]1Cn1c(=O)[nH]/c(=N\c2ccc(Oc3ccc(F)cn3)cc2)n(Cc2ccc(Cl)cc2)c1=O [Compound H5-P1, (1S,2S)-2-((3-(4-chlorobenzyl)-4-((4-((5-fluoropyridin-2-yl)oxy)phenyl)imino)-2,6-dioxo-1,3,5-triazin-1-yl)methyl)cyclopropan-1-carboxylic acid]
- IC50 [2]: 23 nM
- Selectivity multiple [1]: 590
- analgesic effect 4 hours after administration ([3]; 60 mg/kg oral, 4 hours after administration): good analgesic effect
- mechanical pain hypersensitivity (paw withdrawal threshold) ([3]; rat CFA model, oral, 30 and 60 mg/kg, FIG. 2 and FIG. 3): significantly inhibits
- effective dose in the rat pain model ([3]; oral): 30 mg/kg
- AUC [4, 6]: 1740 µg·h/mL
- Cmax [4, 7]: 135 µg/mL
- AUC [4, 8]: 1420 µg·h/mL
- Cmax [4, 9]: 112 µg/mL
- safety window (in words) ([4]; from the data in Table 8): high
- AUC [4, 10]: 2390 µg·h/mL
- Cmax [4, 11]: 162 µg/mL
- AUC [4, 12]: 1460 µg·h/mL
- Cmax [4, 13]: 101 µg/mL
- AUC ([5]; 30 mg/kg): ~249 µg·h/mL
- Cmax ([5]; 30 mg/kg): ~18.4 µg/mL

SMILES: O=C(O)[C@@H]1C[C@H]1Cn1c(=O)[nH]c(=Nc2ccc(Oc3ccc(F)cn3)cc2)n(Cc2ccc(Cl)cc2)c1=O [Compound H5-P2, (1R,2R)-2-((3-(4-chlorobenzyl)-4-((4-((5-fluoropyridin-2-yl)oxy)phenyl)imino)-2,6-dioxo-1,3,5-triazin-1-yl)methyl)cyclopropan-1-carboxylic acid]
- IC50 [2]: 106 nM
- Selectivity multiple [1]: 176

Other lines, results leading:

- Selectivity multiple [1]: 27
SMILES: O=C(O)[C@@H]1C[C@@H]1Cn1c(=O)[nH]/c(=N\c2ccc(Oc3ccccn3)cc2)n(Cc2ccc(Cl)cc2)c1=O (racemic) [Compound H1, (±) cis-2-((3-(4-chlorobenzyl)-2,6-dioxo-4-(4-(pyridin-2-yloxy)phenylimino)-1,3,5-triazin-1-yl)methyl)cyclopropanecarboxylic acid]

- Selectivity multiple [1]: 151
SMILES: O=C(O)[C@@H]1C[C@H]1Cn1c(=O)[nH]/c(=N\c2ccc(Oc3ccccn3)cc2)n(Cc2ccc(Cl)cc2)c1=O (racemic) [Compound H2, (±) trans-2-((3-(4-chlorobenzyl)-2,6-dioxo-4-(4-(pyridin-2-yloxy)phenylimino)-1,3,5-triazin-1-yl)methyl)cyclopropanecarboxylic acid]

- Selectivity multiple [1]: 251
SMILES: O=C(O)[C@@H]1C[C@H]1Cn1c(=O)[nH]/c(=N\c2ccc(Oc3ccc(F)cn3)cc2)n(Cc2ccc(Cl)cc2)c1=O (racemic) [Compound H5, (±) trans-2-((3-(4-chlorobenzyl)-4-((4-((5-fluoropyridin-2-yl)oxy)phenyl)imino)-2,6-dioxo-1,3,5-triazin-1-yl)methyl)cyclopropan-1-carboxylic acid]

- IC50 [2]: 73 nM
- Selectivity multiple [1]: 114
SMILES: O=C(O)[C@@H]1C[C@H]1Cn1c(=O)[nH]/c(=N\c2ccc(Oc3cccc(F)n3)cc2)n(Cc2ccc(Cl)cc2)c1=O (racemic) [Compound H7, (±) trans-2-((3-(4-chlorobenzyl)-4-((4-((6-fluoropyridin-2-yl)oxy)phenyl)imino)-2,6-dioxo-1,3,5-triazin-1-yl)methyl)cyclopropan-1-carboxylic acid]

- IC50 [2]: 148 nM
- Selectivity multiple [1]: 238
SMILES: O=C(O)[C@@H]1C[C@H]1Cn1c(=O)[nH]/c(=N\c2ccc(Oc3ncccc3F)cc2)n(Cc2ccc(Cl)cc2)c1=O (racemic) [Compound H8, (±) trans-2-((3-(4-chlorobenzyl)-4-((4-((3-fluoropyridin-2-yl)oxy)phenyl)imino)-2,6-dioxo-1,3,5-triazin-1-yl)methyl)cyclopropane-1-carboxylic acid]
